Reference: paper PMC12663298, “Sibiriline, a novel dual inhibitor of necroptosis and ferroptosis, prevents RIPK1 kinase activity and (phospho)lipid peroxidation as a potential therapeutic strategy” (Cell Death Discovery, 2025)

Experiments:
Format in all cases: biochemical
JAK2 = JAK2 (Homo sapiens, UniProt O60674); assay: enzymatic kinase assay (Eurofins) at KM,ATP
DRAK2 = target: T1, DRAK2 (Homo sapiens, UniProt O94768); assay: enzymatic kinase assay (Eurofins) at KM,ATP
T1 construct: gene STK17B
T1 sequence (O94768 1-372): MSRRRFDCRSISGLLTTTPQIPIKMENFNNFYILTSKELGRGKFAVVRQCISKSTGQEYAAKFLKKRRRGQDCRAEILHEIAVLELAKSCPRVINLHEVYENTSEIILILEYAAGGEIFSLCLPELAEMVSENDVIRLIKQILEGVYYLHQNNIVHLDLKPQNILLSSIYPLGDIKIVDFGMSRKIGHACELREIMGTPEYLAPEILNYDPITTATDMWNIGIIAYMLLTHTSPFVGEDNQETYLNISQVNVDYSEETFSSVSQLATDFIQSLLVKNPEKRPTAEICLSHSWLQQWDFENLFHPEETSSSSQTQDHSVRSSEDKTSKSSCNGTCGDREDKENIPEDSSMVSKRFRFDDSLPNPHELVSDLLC

KIT = KIT (Homo sapiens, UniProt P10721); assay: enzymatic kinase assay (Eurofins) at KM,ATP
AURKC = target: T2, AURKC (Homo sapiens, UniProt Q9UQB9); assay: enzymatic kinase assay (Eurofins) at KM,ATP
T2 sequence (Q9UQB9 1-309): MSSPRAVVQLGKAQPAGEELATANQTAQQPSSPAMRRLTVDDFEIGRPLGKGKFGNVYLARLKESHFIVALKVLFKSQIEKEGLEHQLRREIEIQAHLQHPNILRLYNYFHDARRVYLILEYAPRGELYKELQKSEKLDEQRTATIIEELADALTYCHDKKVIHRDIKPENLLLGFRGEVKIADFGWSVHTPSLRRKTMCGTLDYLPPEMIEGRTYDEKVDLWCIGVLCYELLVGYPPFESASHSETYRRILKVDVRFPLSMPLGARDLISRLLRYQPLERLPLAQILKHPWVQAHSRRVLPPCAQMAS

PDGFR-β = target: T3, PDGFR-β (Homo sapiens, UniProt P09619); assay: enzymatic kinase assay (Eurofins) at KM,ATP
T3 construct: gene PDGFRB

ABL1 = ABL1 (Homo sapiens, UniProt P00519); assay: ADP-Glo kinase assay at KM,ATP
ABL1, sequence (P00519 whole entry): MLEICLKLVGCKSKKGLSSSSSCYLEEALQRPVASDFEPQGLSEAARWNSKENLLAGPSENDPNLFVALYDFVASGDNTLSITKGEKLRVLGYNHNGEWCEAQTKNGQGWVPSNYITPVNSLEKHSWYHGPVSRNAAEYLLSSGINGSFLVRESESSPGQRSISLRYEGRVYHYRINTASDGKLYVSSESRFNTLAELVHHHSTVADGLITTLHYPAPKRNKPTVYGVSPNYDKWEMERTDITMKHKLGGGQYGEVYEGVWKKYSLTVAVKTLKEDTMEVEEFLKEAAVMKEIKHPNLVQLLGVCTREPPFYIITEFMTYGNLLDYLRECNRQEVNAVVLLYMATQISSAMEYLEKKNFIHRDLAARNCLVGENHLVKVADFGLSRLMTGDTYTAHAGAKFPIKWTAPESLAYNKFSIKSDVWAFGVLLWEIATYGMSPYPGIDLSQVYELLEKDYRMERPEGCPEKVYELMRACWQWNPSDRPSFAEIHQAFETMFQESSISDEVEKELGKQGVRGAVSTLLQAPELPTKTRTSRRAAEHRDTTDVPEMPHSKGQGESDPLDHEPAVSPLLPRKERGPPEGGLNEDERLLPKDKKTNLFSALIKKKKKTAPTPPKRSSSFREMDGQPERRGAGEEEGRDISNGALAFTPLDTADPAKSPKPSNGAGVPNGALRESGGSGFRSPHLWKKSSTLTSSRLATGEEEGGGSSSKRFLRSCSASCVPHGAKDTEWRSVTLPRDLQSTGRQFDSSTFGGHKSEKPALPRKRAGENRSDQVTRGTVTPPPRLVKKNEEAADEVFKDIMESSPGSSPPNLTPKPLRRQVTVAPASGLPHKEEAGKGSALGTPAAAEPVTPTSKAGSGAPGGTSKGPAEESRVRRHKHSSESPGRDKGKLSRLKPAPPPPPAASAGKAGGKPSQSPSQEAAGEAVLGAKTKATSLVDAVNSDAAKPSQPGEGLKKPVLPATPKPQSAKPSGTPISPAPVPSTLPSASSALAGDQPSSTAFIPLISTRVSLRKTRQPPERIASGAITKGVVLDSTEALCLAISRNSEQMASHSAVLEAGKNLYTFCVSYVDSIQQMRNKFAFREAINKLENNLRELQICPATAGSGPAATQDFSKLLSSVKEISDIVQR

T3 sequence (P09619 33-1106): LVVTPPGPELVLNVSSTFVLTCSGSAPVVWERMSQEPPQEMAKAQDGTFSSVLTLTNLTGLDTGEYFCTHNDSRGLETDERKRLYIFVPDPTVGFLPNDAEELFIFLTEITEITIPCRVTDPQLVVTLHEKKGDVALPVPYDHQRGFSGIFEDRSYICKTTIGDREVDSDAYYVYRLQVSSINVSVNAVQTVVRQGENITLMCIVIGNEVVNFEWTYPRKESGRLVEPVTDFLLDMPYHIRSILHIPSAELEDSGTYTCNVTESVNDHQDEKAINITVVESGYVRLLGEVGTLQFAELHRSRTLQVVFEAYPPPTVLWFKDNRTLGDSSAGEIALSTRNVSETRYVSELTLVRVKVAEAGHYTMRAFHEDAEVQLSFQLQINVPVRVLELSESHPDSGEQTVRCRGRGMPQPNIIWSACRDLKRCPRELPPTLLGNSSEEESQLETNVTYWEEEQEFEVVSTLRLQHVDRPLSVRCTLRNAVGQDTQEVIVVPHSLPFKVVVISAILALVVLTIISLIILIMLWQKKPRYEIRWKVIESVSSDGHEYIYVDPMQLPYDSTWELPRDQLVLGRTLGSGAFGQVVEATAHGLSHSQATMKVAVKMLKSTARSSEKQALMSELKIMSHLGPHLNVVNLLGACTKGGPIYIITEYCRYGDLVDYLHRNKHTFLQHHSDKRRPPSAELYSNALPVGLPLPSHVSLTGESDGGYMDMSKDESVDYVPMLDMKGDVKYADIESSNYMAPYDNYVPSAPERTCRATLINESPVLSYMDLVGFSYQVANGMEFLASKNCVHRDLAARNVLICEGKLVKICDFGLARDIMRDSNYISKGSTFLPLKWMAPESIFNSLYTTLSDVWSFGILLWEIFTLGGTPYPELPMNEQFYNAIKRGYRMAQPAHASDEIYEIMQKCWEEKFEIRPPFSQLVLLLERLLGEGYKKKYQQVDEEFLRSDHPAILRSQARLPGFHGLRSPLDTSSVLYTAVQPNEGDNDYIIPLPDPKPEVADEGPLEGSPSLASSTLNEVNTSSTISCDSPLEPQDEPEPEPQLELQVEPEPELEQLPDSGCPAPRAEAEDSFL
KIT, sequence (P10721 26-976): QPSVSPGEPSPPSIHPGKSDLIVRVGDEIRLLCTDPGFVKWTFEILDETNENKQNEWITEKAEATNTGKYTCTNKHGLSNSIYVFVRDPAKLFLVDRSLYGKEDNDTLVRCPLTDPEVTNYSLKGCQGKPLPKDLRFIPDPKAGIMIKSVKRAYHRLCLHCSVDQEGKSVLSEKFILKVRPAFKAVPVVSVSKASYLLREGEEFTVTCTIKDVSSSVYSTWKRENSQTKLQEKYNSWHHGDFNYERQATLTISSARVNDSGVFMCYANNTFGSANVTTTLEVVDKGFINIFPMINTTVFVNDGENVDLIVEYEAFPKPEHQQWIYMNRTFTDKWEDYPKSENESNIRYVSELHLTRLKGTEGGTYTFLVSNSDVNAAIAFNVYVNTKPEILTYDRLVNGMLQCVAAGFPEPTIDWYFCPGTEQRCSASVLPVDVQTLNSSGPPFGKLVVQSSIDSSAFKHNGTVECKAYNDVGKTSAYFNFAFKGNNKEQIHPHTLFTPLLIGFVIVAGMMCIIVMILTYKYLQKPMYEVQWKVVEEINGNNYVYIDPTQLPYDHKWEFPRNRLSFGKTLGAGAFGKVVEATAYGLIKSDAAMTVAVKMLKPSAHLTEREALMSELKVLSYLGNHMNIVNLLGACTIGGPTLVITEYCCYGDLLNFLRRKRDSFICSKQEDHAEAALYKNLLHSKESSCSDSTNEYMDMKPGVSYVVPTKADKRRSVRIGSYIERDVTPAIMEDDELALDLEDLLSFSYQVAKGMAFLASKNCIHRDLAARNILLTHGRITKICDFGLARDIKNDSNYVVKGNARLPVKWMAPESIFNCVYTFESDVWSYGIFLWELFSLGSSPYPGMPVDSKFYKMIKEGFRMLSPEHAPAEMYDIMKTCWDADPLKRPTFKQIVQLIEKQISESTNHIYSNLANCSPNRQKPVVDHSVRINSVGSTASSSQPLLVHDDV
JAK2, sequence (O60674 whole entry): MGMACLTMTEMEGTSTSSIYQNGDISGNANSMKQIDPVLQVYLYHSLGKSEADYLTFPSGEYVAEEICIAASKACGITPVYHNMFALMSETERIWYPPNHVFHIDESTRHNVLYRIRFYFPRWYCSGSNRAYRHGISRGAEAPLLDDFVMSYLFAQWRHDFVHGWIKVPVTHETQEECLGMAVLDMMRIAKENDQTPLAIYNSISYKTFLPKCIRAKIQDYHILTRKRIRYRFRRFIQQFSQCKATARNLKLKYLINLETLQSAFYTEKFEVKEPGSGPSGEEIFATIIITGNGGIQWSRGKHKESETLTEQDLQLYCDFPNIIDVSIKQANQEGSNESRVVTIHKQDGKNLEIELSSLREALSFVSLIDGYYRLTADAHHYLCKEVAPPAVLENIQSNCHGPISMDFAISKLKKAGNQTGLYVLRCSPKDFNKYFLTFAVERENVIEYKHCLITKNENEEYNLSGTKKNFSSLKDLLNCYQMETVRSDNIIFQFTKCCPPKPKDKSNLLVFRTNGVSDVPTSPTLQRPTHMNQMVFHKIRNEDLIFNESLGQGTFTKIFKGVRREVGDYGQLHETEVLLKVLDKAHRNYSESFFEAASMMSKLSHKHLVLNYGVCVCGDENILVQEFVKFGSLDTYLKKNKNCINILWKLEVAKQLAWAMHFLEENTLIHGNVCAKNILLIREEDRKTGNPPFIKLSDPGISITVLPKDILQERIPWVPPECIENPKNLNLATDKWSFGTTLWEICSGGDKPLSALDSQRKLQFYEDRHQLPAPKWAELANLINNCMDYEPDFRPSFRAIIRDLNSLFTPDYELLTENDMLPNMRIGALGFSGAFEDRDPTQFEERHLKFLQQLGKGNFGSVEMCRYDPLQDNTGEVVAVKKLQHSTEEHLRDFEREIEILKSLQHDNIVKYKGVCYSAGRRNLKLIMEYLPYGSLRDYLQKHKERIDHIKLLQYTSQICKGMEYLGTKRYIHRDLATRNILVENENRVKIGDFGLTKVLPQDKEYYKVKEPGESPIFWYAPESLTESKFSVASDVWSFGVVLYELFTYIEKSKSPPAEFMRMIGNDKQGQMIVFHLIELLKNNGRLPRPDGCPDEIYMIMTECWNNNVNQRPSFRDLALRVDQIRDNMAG

## Oc1ccc(-c2cc3cccnc3[nH]2)cc1 [compound 1, 4-(1H-pyrrolo[2,3-b]pyridin-2-yl)phenol]
JAK2
  IC50: All kinases tested showed inhibition in the µM range.
DRAK2
  IC50: All kinases tested showed inhibition in the µM range.
KIT
  IC50: All kinases tested showed inhibition in the µM range.
AURKC
  IC50: All kinases tested showed inhibition in the µM range.
PDGFR-β
  IC50: All kinases tested showed inhibition in the µM range.
ABL1
  IC50: All kinases tested showed inhibition in the µM range.
